Patent US20060275229A1, “Skin care active complex and methods of using same” (priority 2005, published 2006)
Blank lines part the entries; values can stand above or below the molecule they belong to.

Columns and labels:
[1] = molecular target: T1, human neutrophil elastase (Homo sapiens, UniProt P08246); test: Neutrophil elastase inhibition, chromogenic substrate assay; assay type: biochemical
T1 construct: purchased Athens Research and Technology, GA
T1 sequence (P08246 30-267): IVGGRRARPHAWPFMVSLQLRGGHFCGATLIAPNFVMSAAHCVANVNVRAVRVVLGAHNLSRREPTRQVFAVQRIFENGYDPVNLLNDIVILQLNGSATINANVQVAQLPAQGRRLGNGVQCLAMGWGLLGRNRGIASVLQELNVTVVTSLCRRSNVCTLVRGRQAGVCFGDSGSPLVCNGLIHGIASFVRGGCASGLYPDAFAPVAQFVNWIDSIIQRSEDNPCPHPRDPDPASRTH
From the text: In combination, these three enzymes are capable of extensively degrading all of the protein components of the extracellular matrix (ECM) including collagens I and III (the major collagen types in the skin), elastin and the various glycoprotein components (e.g., fibronectin). Elevated expression of these proteases is triggered by inflammatory stimuli such as UV light, and their activity results in ECM damage that is a major component of skin aging.
Ursolic acid is a powerful inhibitor of elastase activity. The inhibition activity of ursolic acid was tested by incubating it with a human neutrophil elastase sample (obtained from Athens Research and Technology, GA) for 10 minutes with a chromogenic substrate, given below. The change in optical density of the substrate at 405 nm was recorded one reading per minute at room temperature reaction mixtures in a 96-well plate. The reaction mixture contains 300 µg/ml methoxysuccinyl-Ala-Ala-Pro-Val-pNA (chromogenic substrate); […] human neutrophil elastase at concentrations in the range 0.55%-3.3%; 70 mM Tris-HCl (pH 8); and 200 mM NaCl.
The % inhibition is calculated relative to the no-sample control.

[2] = Inhibition of UV-induced lipid peroxidation of phospholipid liposomes (antioxidant test, malonaldehyde); assay type: biochemical; details: lecithin liposomes, UV light for 4 hours
Experimental: Unsaturated fatty acids are present in the phospholipids of cell membranes. Their oxidation compromises membrane integrity and also leads to the generation of breakdown products that are damaging to other important cellular components such as proteins and nucleic acids. Since the skin is exposed to large doses of UV light from the sun, UV-induced peroxidation is a significant route of oxidant damage. […] The left column of Table 2 lists the compounds that were tested, while the right column lists each corresponding compound the effective concentration that inhibits oxidation by 50%. The assay was performed by irradiating a suspension of lecithin liposomes with UV light for 4 hours in the absence of or in the presence of the different compounds listed in the table. […] The rate of lipid oxidation was calculated from the increase in malonaldehyde content.

Elastase Inhibition (%) ([1]; concentration 0.0004 %): 26%
Elastase Inhibition (%) ([1]; concentration 0.0008 %): 44%
Elastase Inhibition (%) ([1]; concentration 0.0012 %): 58%
Elastase Inhibition (%) ([1]; concentration 0.002 %): 72%
Elastase Inhibition (%) ([1]; concentration 0.004 %): 81%
Elastase Inhibition (%) ([1]; concentration 0.006 %): 84%
Elastase Inhibition (%) ([1]; concentration 0.01 %): 86%
IC50 value for elastase inhibition ([1]; human neutrophil elastase, chromogenic substrate, Example 4): about 0.0008%
SMILES: C[C@H]1[C@H](C)CC[C@]2(C(=O)O)CC[C@]3(C)C(=CC[C@@H]4[C@@]5(C)CC[C@H](O)C(C)(C)[C@@H]5CC[C@]43C)[C@H]12 [Ursolic Acid, Ursolic acid]

EC50 (concentration that inhibits oxidation by 50%) [2]: 0.0003 % w/w
SMILES: O=C(O[C@@H]1Cc2c(O)cc(O)cc2O[C@@H]1c1cc(O)c(O)c(O)c1)c1cc(O)c(O)c(O)c1 [Epigallocatechin gallate (EGCG), Epigallocatechin gallate]

EC50 (concentration that inhibits oxidation by 50%) [2]: 0.022 % w/w
SMILES: CC(=O)Oc1c(C)c(C)c2c(c1C)CCC(C)(CCC[C@H](C)CCC[C@H](C)CCCC(C)C)O2 (some centres unmarked) [Vitamin E acetate]

EC50 (concentration that inhibits oxidation by 50%) [2]: 0.002 % w/w
SMILES: O=C1O[C@H]([C@@H](O)CO)C(O)=C1O [Vitamin C (Ascorbic Acid), Ascorbic Acid]
